Test results taken from patent publication US12668567B2 (Zywie, LLC, priority 2023, dated 2026).
Entries after “also recorded” stand apart in the source; their conditions may differ.

Experiments:
[1] = Metabolic stability in human liver microsomes; type: in vitro ADME; conditions: for Increase of elimination half-life vs. ambroxol: human liver microsomes; for In vitro elimination half-life t1/2 / Intrinsic clearance CLint-microsomes: human liver microsomes 1 mg/mL protein, 1 μM compound, 37° C., NADPH-regenerating system
Description: The compounds were added to preparations of human liver microsomes (200 μL per incubation at a 1 mg/mL protein concentration) such that the final compound concentration was 1 μM. The samples were incubated at 37° C. in the presence of a reduced nicotinamide adenine dinucleotide phosphate (NADPH)-regenerating system (NADP, 1 mM, pH 7.4; glucose-6-phosphate, 5 mM, pH 7.4; glucose-6-phosphate dehydrogenase, 1 unit/mL). A positive control (midazolam, 1 μM, 0.1 mg/mL protein) was incubated concurrently to ensure the microsome preparation was performing as expected. Samples were obtained at t=0, 30, 60, and 120 min and quenched by addition of acetonitrile.
Quenched samples were analyzed by liquid chromatography coupled to tandem mass spectrometry detection (LC/MS-MS). The concentration of the test compounds at each time point were converted to percent remaining relative to the concentration of the compound at time t=0 (which serves as the 100% value). All data points were included in data processing. The rate constant of elimination (kel, min^−1) of each test compound was determined from the time course of disappearance of the parent compound based on fitting the experimental data to a single exponential decay formula (At=Aoe^−kelt, where At is the % remaining at time t, Ao is 100%, […] is the elimination rate constant, and t is time). The in vitro half-life (t1/2) was determined from kel based on the formula: t1/2=ln(2)/kel. The rate constant of elimination was also used to calculate the in vitro intrinsic clearance CLint-microsomes (μL/min/mg protein).

[2] = test system: human induced pluripotent stem cell (iPSC)-derived neurons; assay: Lysosomal size (Lysotracker, confocal microscopy) in iPSC-derived neurons; type: cell-based; conditions: 14 days, IMARIS software, FIG. 3
Description: To obtain the data, human induced pluripotent stem cell (iPSC)-derived neurons were grown in culture for 14 days. Lysosomes were stained with “Lysotracker” and cells were fixed and imaged using confocal micrsosopy. Lysosomal size was measured using IMARIS software (Bitplane).
In FIG. 3 human neuronal inducible Pluripotent Stem Cells (iPSCs) were obtained from the New York Stem Cell Foundation. Cultured cells were differentiated and maintained in proprietary media from Stem Cell Technology. […] Cells were treated for 14 days. Lysosomes were stained with “Lysotracker Green” (Invitrogen) following manufacturer's directions. Cells were fixed and 3D image stacks were acquired using a Leica SP8 laser scanning confocal microscope. Lysosomal size was quantitated using IMARIS 7.7 software (Bitplane).

[3] = test system: N2A neuroblastoma cells; assay: Lysosomal, autophagosomal and TFEB gene expression by qPCR in N2A cells; type: cell-based; conditions: 10 micromolar, FIG. 4
Description: To obtain the data, N2A neuroblastoma cells were treated for 3 days with solvent alone (DMSO), ZW-010 (difluoro) or ZW-011 (dimethoxy) at 10 micromolar. Cells were extracted and mRNAs were quantitated by qPCR.
In FIG. 4, N2a Neuroblastoma cells were obtained from the American Tissue Type Collection (ATCC). Cells were plated in a 6-well plate at a density of 100,000 cells/well. Cells were given 24 hours in MEM supplemented with 10% Fetal Bovine Serum (FBS) and then differentiated by serum starvation in MEM for 24 hours. […] Cells were left in treated media for 24 hours then RNA was TRIzol-chloroform extracted. cDNA was created using an iScript cDNA synthesis kit (Bio-Rad), and RT-PCR was run using a SsoAdvanced Universal SYBR Green Supermix kit (Bio-Rad).

[4] = test system: iPSC-derived human neurons; assay: Lysosomal and autophagosomal gene expression by qPCR in iPSC-derived human neurons; type: cell-based; conditions: 3 days, 10 micromolar, FIG. 5
Description: To obtain the data, iPSC-derived human Neurons were treated for 3 days with solvent alone (DMSO), ZW-010 (difluoro) or ZW-011 (dimethoxy) at 10 micromolar. Cells were extracted and mRNAs were quantitated by qPCR.
In FIG. 5, Human iPSC-derived neurons (as in FIG. 3) were plated on two 6-well plates at a density of 150,000 cells/well. […] Cells were treated for 3 days and cells were TRIzol-chloroform extracted. cDNA was created using an iScript cDNA synthesis kit (Bio-Rad), and RT-PCR was run using a SsoAdvanced Universal SYBR Green Supermix kit (Bio-Rad).

[5] = test system: iPSC-derived human neurons bearing the Swedish amyloid precursor protein mutation; assay: Secretion of Abeta40 and Abeta42 into media (ELISA); type: cell-based; conditions: 5 days; for secretion of Abeta40 into the media / secretion of Abeta42 into the media: 10 micromolar; for secretion of Abeta40 into the media: FIG. 7A; for secretion of Abeta42 into the media: FIG. 7B
From the text: Media was collected and analysed by ELISA assay.
Media was taken and analyzed by ELISA (Invitrogen) for Abeta 40 (FIG. 7A) and 42 (FIG. 7B) following manufacturer's instructions.

[6] = test system: mouse B6D2F1 model; assay: Lifespan study with chow supplement; type: in vivo; conditions: 50 mg/kg daily as chow supplement
Description: Weaned male BDF1 mice raised from pups, housed 1-4 animals per cage and fed Teklad 7013 NIH-31 rodent chow and water ad libitum, at 2 months of age, are divided into two roughly equal groups of 22-25 animals. One group continues to be fed the Teklad chow as before (control); the other group is switched to Teklad chow formulated with any one of compounds 1-6 at 300 mg per kg of chow. This formulation was designed, based on the average ad libitum chow consumption of an adult male BDF1 mouse, to deliver 50 mg/kg/day (based on body mass) to each mouse in the treated group. Mice are maintained on this diet until they die naturally or until they reach 16 months of age, at which time the experiment ends. During the course of the experiment, all mice are periodically removed from their cages and handled in the course of subjecting them to various sensorimotor, cognitive, and/or behavioral tests.

[7] = test system: mice; assay: Novel place recognition (cognitive acuity test at 7 months); type: in vivo, mouse; conditions: 150 mg/kg/day and 50 mg/kg/day vs. control, tested at 7 months; FIG. 9
Description: A Discrimination Index (DI)=(tnovel-tfamiliar)/(tnovel+tfamiliar) was used to assess the time spent exploring near the object in a novel place (“tnovel”) vs. the total exploration time overall. Discrimination Index scores greater than zero are considered to indicate good place recognition memory.
Three groups of mice, with at least 13 mice in each group, are given a cognitive acuity test at 7 months. The three groups of mice are: “High Dose” Group (150 mg/kg/day of a compound of the present invention), “Low Dose” (50 mg/kg/day of a compound of the present invention) Group, and a Control Group (not administered a compound of the present invention).

[8] = mouse, in vivo, po, 10 mg/kg
Description: Both compounds were dosed at 10 mg/kg (free base equivalent) as 1 mg/mL clear solutions in 5:95 v/v dimethylsulfoxide (DMSO)/saline. Volumes administered were calculated for each animal based on their most recent weight. Animals were fasted overnight prior to drug administration and food and water were returned 4 h after dose administration. Mice (N=3 per group) were sacrificed at 0.15, 0.25, 1, 2, 4, 8, and 24 h post-dose. Blood (K2EDTA collection tubes) and brain were collected from each animal at each time point. Plasma (isolated from blood samples by centrifugation) and brain homogenates (obtained by homogenization with 50% methanol in water in a 1:2 w/v ratio) were used to prepare samples for quantitative analysis (internal standard: verapamil) by HPLC/MS-MS (C18 column, gradient elution; standard curves from 1 to 3,000 ng/mL; electrospray, positive ionization mode, multiple reaction monitoring—MRM—mode).

[9] = test system: TFEB; assay: TFEB transfer to the nucleus (immunostaining, nuclear puncta); type: cell-based; conditions: human iPSC-derived neurons, 14 days; FIG. 6
Description: To obtain the data, human iPSC-derived neurons were treated with difluor-substituted-ambroxol for 14 days. Cells were fixed and endogenous TFEB was immunostained and nuclei were identified by DAPI staining. Cells were imaged on a Leica SP8 Confocal Microscope. TFEB signal appeared as puncta throughout the cytoplasm and nucleus (FIG. 6B). TFEB puncta within the nucleus were quantitated using IMARIS software (Bitplane).
Human iPSC-derived neurons were treated with difluoro-substituted-ambroxol for 14 days. Cells were fixed and endogenous TFEB was immunostained. Nuclei were identified by DAPI staining. Cells were imaged as 3D stacks on a Leica SP8 Confocal Microscope. TFEB signal appeared as puncta throughout the cytoplasm and nucleus (FIG. 6A). TFEB puncta within the nucleus were quantitated using IMARIS 7.7 software (Bitplane) (FIG. 6B).

| Structure (SMILES) | Increase of elimination half-life vs. ambroxol [1] | In vitro elimination half-life t1/2 [1] [h] | Intrinsic clearance CLint-microsomes [1] [μL/min/mg protein] | lysosomal size [2] | lysosomal, autophagosomal and TFEB gene expression (LAMP1, Cathepsin B, GBA1, LC3, TFEB mRNA) [3] | lysosomal and autophagosomal gene expression (LAMP1, Cathepsin D, Cathepsin B, GBA1, LC3, TFEB mRNA) [4] | secretion of Abeta40 into the media [5] | secretion of Abeta42 into the media [5] | secretion of beta amyloid species (Abeta 40 and 42) ([5]; FIG. 7A-B) | lifespan ([6]; starting at 2 months of age, FIG. 8) | healthspan ([6]; surviving animals when sacrificed) | cognitive acuity (novel place recognition) [7] | AUClast Brain/Plasma [8] | AUClast, brain [8] [ng·h/g] | AUClast, plasma [8] [ng·h/mL] | molar exposure AUClast [8] [µM·h] | TFEB transfer to the nucleus [9] |
| --- | --- | --- | --- | --- | --- | --- | --- | --- | --- | --- | --- | --- | --- | --- | --- | --- | --- |
| COc1cc(CN[C@H]2CC[C@H](O)CC2)c(N)c(OC)c1 [ZW-011, trans-4-{[(2-amino-3.5-dimethoxyphenyl)methyl]amino}cyclohexanol] | increased by more than two-fold | >2 | <5.775 | increase lysosomal size | increased transcription of lysosome-associated LAMP1, Cathepsin B, GBA1, and autophagy-associated LC3 and TFEB to a greater extent than ambroxol; also recorded: drive lysosomal and autophagosomal and TFEB gene expression | increased transcription of lysosome-associated LAMP1, Cathepsin D, Cathepsin B, GBA1, and autophagy-associated LC3 and TFEB to a greater extent than ambroxol; also recorded: drive lysosomal and autophagosomal gene expression to a greater degree in iPSC-derived human neurons compared with ambroxol | decreased secretion | decreased secretion | – | – | – | – | – | – | – | – | – |
| Nc1c(Br)cc(Br)cc1CN[C@H]1CC[C@H](O)CC1 [ambroxol, trans-4-((2-amino-3,5-dibromobenzyl)amino) cyclohexanol] | – | – | – | – | – | – | – | – | effective in reducing secretion of beta amyloid species | able to increase lifespan | healthspan was extended in parallel with lifespan | dose-related improvement in cognitive acuity | – | – | – | – | – |
| Nc1c(F)cc(F)cc1CN[C@H]1CC[C@H](O)CC1 [ZW-010, trans-{4-[(2-amino-3.5-difluorophenyl)methyl]amino}cyclohexanol] | increased by more than two-fold | >2 | <5.775 | increase lysosomal size | increased transcription of lysosome-associated LAMP1, Cathepsin B, GBA1, and autophagy-associated LC3 and TFEB to a greater extent than ambroxol; also recorded: drive lysosomal and autophagosomal and TFEB gene expression | increased transcription of lysosome-associated LAMP1, Cathepsin D, Cathepsin B, GBA1, and autophagy-associated LC3 and TFEB to a greater extent than ambroxol; also recorded: drive lysosomal and autophagosomal gene expression to a greater degree in iPSC-derived human neurons compared with ambroxol | decreased secretion | decreased secretion | – | – | – | – | 3.6 | 10774 | 2991 | 42.0 | induces TFEB transfer to the nucleus |
